Test results: patent US12599672B2, “KRAS proteolysis targeting chimeras” (PAQ Therapeutics Inc., priority 2023, dated 2026)

Assays:
Assay type in all cases: cell-based
KRAS G12D = target: T1, KRAS G12D (Homo sapiens, UniProt P01116, G12D); test: KRAS G12D HiBit assay; details: AsPc-1-KRAS (G12D)-HiBit-KI cell, compound treatment for 24 hours, class symbols; for DC50: absolute DC50
T1 construct: AsPc-1-KRAS (G12D)-HiBit-KI cell (Pharmaron); host or cells: AsPc-1-KRAS (G12D)-HiBit-KI cells (HiBiT knock-in at the endogenous KRAS locus)
T1 sequence (P01116 1-188 isoform P01116-2 G12D): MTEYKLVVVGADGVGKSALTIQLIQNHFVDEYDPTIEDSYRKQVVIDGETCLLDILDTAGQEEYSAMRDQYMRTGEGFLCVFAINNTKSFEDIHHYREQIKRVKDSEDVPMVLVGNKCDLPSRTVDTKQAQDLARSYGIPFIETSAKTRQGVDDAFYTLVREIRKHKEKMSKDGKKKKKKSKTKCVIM
Outline: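 HiBiT luminescence, detected by adding lytic buffer, substrate and LgBiT protein, served as the KRAS G12D read-out. Compounds, serially diluted 3-fold over 10 points from 0.3 mM DMSO stock, were on cells for 24 h; percent inhibition normalized to cells given 0.1% DMSO only.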

KRAS G12V = target: T2, KRAS G12V (Homo sapiens, UniProt P01116, G12V); test: KRAS G12V HiBit assay; details: SW620-KRAS (G12V)-HiBit-KI cells, compound treatment for 24 hours, class symbols
T2 construct: SW620-KRAS (G12V)-HiBit-KI cell (Pharmaron); host or cells: SW620-KRAS (G12V)-HiBit-KI cells (HiBiT knock-in at the endogenous KRAS locus)
T2 sequence (P01116 1-188 isoform P01116-2 G12V): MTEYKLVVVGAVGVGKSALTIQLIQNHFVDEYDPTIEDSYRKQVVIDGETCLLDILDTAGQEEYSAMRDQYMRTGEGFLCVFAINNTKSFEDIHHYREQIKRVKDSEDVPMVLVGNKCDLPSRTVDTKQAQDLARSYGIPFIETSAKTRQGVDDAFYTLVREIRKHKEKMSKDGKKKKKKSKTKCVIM
Outline: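 Luminescence from lytic Nano-Glo HiBiT detection with LgBiT read KRAS G12V levels after 24 h compound exposure. Dilutions were 10-point, 3-fold, from a 0.3 mM DMSO stock. Degradation activity was normalised to cells given 0.1% DMSO alone.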

KRAS = target: T3, KRAS (Homo sapiens, UniProt P01116); test: KRASamp MSD assay; details: KE39 (KRAS amplified) cells, treated with test compounds for 24 hr, MSD readout of KRAS degradation
T3 construct: endogenous in cells; host or cells: KE39 (KRAS amplified) cells
T3 sequence (P01116 1-188 isoform P01116-2): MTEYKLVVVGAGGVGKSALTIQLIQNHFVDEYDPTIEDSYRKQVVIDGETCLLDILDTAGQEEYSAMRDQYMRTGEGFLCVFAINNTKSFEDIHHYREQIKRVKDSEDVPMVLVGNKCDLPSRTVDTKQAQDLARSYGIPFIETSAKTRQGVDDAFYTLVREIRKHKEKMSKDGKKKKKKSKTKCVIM
Outline: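 Degradation DC50 derived by curve fitting, with KRAS levels quantified by MSD electrochemiluminescence (capture/detection antibodies, recombinant WT KRAS standard). Lysates prepared from KE39 cells (KRAS amplified) exposed to test compounds for 24 hr.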

| SMILES | DC50 (KRAS G12D) [nM] | Dmax (KRAS G12D) [%] | DC50 (KRAS G12V) [nM] | DC50 (KRAS) [nM] |
| --- | --- | --- | --- | --- |
| CCc1c(F)ccc2cc(O)cc(-c3ncc4c(N5CCC[C@@](C)(O)C5)nc(OC[C@@]56CCCN5[C@H](COC(=O)N5CCC(CN7CCC(c8ccc9c(C%10CCC(=O)NC%10=O)nn(C)c9c8F)CC7)CC5)CC6)nc4c3F)c12 (stereo partly drawn) [Compound 100, [(3S,8S)-8-[[7-(8-ethyl-7-fluoro-3-hydroxy-1-naphthyl)-8-fluoro-4-[(3R)-3-hydroxy-3-methyl-1-piperidyl]pyrido[4,3-d]pyrimidin-2-yl]oxymethyl]-1,2,3,5,6,7-hexahydropyrrolizin-3-yl]methyl 4-[[4-[3-(2,6-dioxo-3-piperidyl)-7-fluoro-1-methyl-indazol-6-yl]-1-piperidyl]methyl]piperidine-1-carboxylate] | < 100 | > 50 | < 10 | < 1 |
| CCc1c(F)ccc2cc(O)cc(-c3ncc4c(N5CCC[C@@](C)(O)C5)nc(OC[C@@]56CCCN5[C@H](COC(=O)N5CCC(CN7CCC(c8cc9c(cc8F)n(C8CCC(=O)NC8=O)c(=O)n9C)CC7)CC5)CC6)nc4c3F)c12 (stereo partly drawn) [Compound 101, ((35,7aS)-7a-(((7-(8-Ethyl-7-fluoro-3-hydroxynaphthalen-1-yl)-8-fluoro-4-((R)-3-hydroxy-3-methylpiperidin-1-yl)pyrido[4,3-d]pyrimidin-2-yl)oxy)methyl)hexahydro-1H-pyrrolizin-3-yl)methyl 4-((4-(1-(2,6-dioxopiperidin-3-yl)-6-fluoro-3-methyl-2-oxo-2,3-dihydro-1H-benzo[d]imidazol-5-yl)piperidin-1-yl)methyl) piperidine-1-carboxylate] | < 100 | > 50 | < 10 | < 1 |
| CCc1c(F)ccc2cc(O)cc(-c3ncc4c(N5CCC[C@@](C)(O)C5)nc(OC[C@@]56CCCN5[C@H](COC(=O)N5CCC(CN7CCC(c8cc9c(cc8F)c(C8CCC(=O)NC8=O)nn9C)CC7)CC5)CC6)nc4c3F)c12 (stereo partly drawn) [Compound 102, ((3S,7aS)-7a-(((7-(8-ethyl-7-fluoro-3-hydroxynaphthalen-1-yl)-8-fluoro-4-((R)-3-hydroxy-3-methylpiperidin-1-yl)pyrido[4,3-d]pyrimidin-2-yl)oxy)methyl)hexahydro-1H-pyrrolizin-3-yl)methyl4-((4-(3-(2,6-dioxopiperidin-3-yl)-5-fluoro-1-methyl-1H-indazol-6-yl)piperidin-1-yl)methyl) piperidine-1-carboxylate] | < 100 | > 50 | < 10 | < 1 |
| C#Cc1c(F)ccc2cc(O)cc(-c3ncc4c(N5CCCC(C#N)CC5)nc(OC[C@@]56CCCN5[C@H](COC(=O)N5CCC(CN7CCC(c8ccc9c(c8)n(C)c(=O)n9C8CCC(=O)NC8=O)CC7)CC5)CC6)nc4c3F)c12 (stereo partly drawn) [Compound 110, ((3S,7aS)-7a-(((4-(4-Cyanoazepan-1-yl)-7-(8-ethynyl-7-fluoro-3-hydroxynaphthalen-1-yl)-8-fluoropyrido[4,3-d]pyrimidin-2-yl)oxy)methyl)hexahydro-1H-pyrrolizin-3-yl)methyl 4-((4-(1-(2,6-dioxopiperidin-3-yl)-3-methyl-2-oxo-2,3-dihydro-1H-benzo[d]imidazol-5-yl)piperidin-1-yl)methyl) piperidine-1-carboxylate] | < 100 | > 50 | < 10 | 1 to 10 |
| CCc1c(F)ccc2cc(O)cc(-c3ncc4c(N5CCOCC(C)(O)C5)nc(OC[C@@]56CCCN5[C@H](COC(=O)N5CCC(CN7CCC(c8ccc9c(c8)n(C)c(=O)n9C8CCC(=O)NC8=O)CC7)CC5)CC6)nc4c3F)c12 (stereo partly drawn) [Compound 118, ((3S,7aS)-7a-(((7-(8-Ethyl-7-fluoro-3-hydroxynaphthalen-1-yl)-8-fluoro-4-(6-hydroxy-6-methyl-1,4-oxazepan-4-yl)pyrido[4,3-d]pyrimidin-2-yl)oxy)methyl)hexahydro-1H-pyrrolizin-3-yl)methyl4-((4-(1-(2,6-dioxopiperidin-3-yl)-3-methyl-2-oxo-2,3-dihydro-1H-benzo[d]imidazol-5-yl)piperidin-1-yl)methyl) piperidine-1-carboxylate] | < 100 |  | < 10 | < 1 |
| CCc1c(F)ccc2cc(O)cc(-c3ncc4c(N5CCC[C@@](C)(O)C5)nc(OC[C@]56CCCN5[C@@H](COC(=O)N5CCC(CN7CCC(c8ccc9c(c8)n(C)c(=O)n9C8CCC(=O)NC8=O)CC7)CC5)CC6)nc4c3F)c12 (stereo partly drawn) [Compound 120, ((3R,7aR)-7a-(((7-(8-Ethyl-7-fluoro-3-hydroxynaphthalen-1-yl)-8-fluoro-4-((R)-3-hydroxyl-3-methylpiperidin-1-yl)pyrido[4,3-d]pyrimidin-2-yl)oxy)methyl)hexahydro-1H-pyrrolizin-3-yl)methyl4-((4-(1-(2,6-dioxopiperidin-3-yl)-3-methyl-2-oxo-2,3-dihydro-1H-benzo[d]imidazol-5-yl)piperidin-1-yl)methyl) piperidine-1-carboxylate] | < 100 |  | < 10 | < 1 |
| CCc1c(F)ccc2cc(O)cc(-c3ncc4c(N5CCC[C@@](C)(O)C5)nc(OCC56CCCN5[C@@H](COC(=O)N5CCC(CN7CCC(c8ccc9c(c8)n(C)c(=O)n9C8CCC(=O)NC8=O)CC7)CC5)CC6)nc4c3F)c12 (stereo partly drawn) [Compound 121, (cis-7a-(((7-(8-Ethyl-7-fluoro-3-hydroxynaphthalen-1-yl)-8-fluoro-4-((R)-3-hydroxy-3-methylpiperidin-1-yl)pyrido[4,3-d]pyrimidin-2-yl)oxy)methyl)hexahydro-1H-pyrrolizin-3-yl)methyl 4-((4-(1-(2,6-dioxopiperidin-3-yl)-3-methyl-2-oxo-2,3-dihydro-1H-benzo[d]imidazol-5-yl)piperidin-1-yl)methyl) piperidine-1-carboxylate] | < 100 |  | < 10 | 1 to 10 |
| C#Cc1c(F)ccc2cc(O)cc(-c3ncc4c(N5CCCCC5)nc(OC[C@@]56CCCN5[C@H](COC(=O)N5CCC(CN7CCC(c8ccc9c(c8)n(C)c(=O)n9C8CCC(=O)NC8=O)CC7)CC5)CC6)nc4c3F)c12 (stereo partly drawn) [Compound 122, ((3S,7aS)-7a-(((7-(8-Ethynyl-7-fluoro-3-hydroxynaphthalen-1-yl)-8-fluoro-4-(piperidin-1-yl)pyrido[4,3-d]pyrimidin-2-yl)oxy)methyl)hexahydro-1H-pyrrolizin-3-yl)methyl4-((4-(1-(2,6-dioxopiperidin-3-yl)-3-methyl-2-oxo-2,3-dihydro-1H-benzo[d]imidazol-5-yl)piperidin-1-yl)methyl) piperidine-1-carboxylate] | < 100 | > 50 | < 10 | < 1 |
| C#Cc1c(F)ccc2cc(O)cc(-c3ncc4c(N5CCCCCC5)nc(OC[C@@]56CCCN5[C@H](COC(=O)N5CCC(CN7CCC(c8ccc9c(c8)n(C)c(=O)n9C8CCC(=O)NC8=O)CC7)CC5)CC6)nc4c3F)c12 (stereo partly drawn) [Compound 123, ((3S,7aS)-7a-(((4-(Azepan-1-yl)-7-(8-ethynyl-7-fluoro-3-hydroxynaphthalen-1-yl)-8-fluoropyrido[4,3-d]pyrimidin-2-yl)oxy)methyl)hexahydro-1H-pyrrolizin-3-yl)methyl4-((4-(1-(2,6-dioxopiperidin-3-yl)-3-methyl-2-oxo-2,3-dihydro-1H-benzo[d]imidazol-5-yl)piperidin-1-yl)methyl) piperidine-1-carboxylate] | < 100 | > 50 | < 10 | < 1 |
| C#Cc1c(F)ccc2cc(O)cc(-c3ncc4c(N5CCCC(F)(F)C5)nc(OC[C@@]56CCCN5[C@H](COC(=O)N5CCC(CN7CCC(c8ccc9c(c8)n(C)c(=O)n9C8CCC(=O)NC8=O)CC7)CC5)CC6)nc4c3F)c12 (stereo partly drawn) [Compound 124, ((35,7aS)-7a-(((4-(3,3-Difluoropiperidin-1-yl)-7-(8-ethynyl-7-fluoro-3-hydroxynaphthalen-1-yl)-8-fluoropyrido[4,3-d]pyrimidin-2-yl)oxy)methyl)hexahydro-1H-pyrrolizin-3-yl)methyl4-((4-(1-(2,6-dioxopiperidin-3-yl)-3-methyl-2-oxo-2,3-dihydro-1H-benzo[d]imidazol-5-yl)piperidin-1-yl)methyl) piperidine-1-carboxylate] | < 100 | > 50 | < 10 | < 1 |
| C#Cc1c(F)ccc2cc(O)cc(-c3ncc4c(N5CCOCC5)nc(OC[C@@]56CCCN5[C@H](COC(=O)N5CCC(CN7CCC(c8ccc9c(c8)n(C)c(=O)n9C8CCC(=O)NC8=O)CC7)CC5)CC6)nc4c3F)c12 (stereo partly drawn) [Compound 125, ((3S,7aS)-7A-(((7-(8-Ethynyl-7-fluoro-3-hydroxynaphthalen-1-yl)-8-fluoro-4-morpholinopyrido[4,3-d]pyrimidin-2-yl)oxy)methyl)hexahydro-1H-pyrrolizin-3-yl)methyl 4-((4-(1-(2,6-dioxopiperidin-3-yl)-3-methyl-2-oxo-2,3-dihydro-1H-benzo[d]imidazol-5-yl)piperidin-1-yl)methyl) piperidine-1-carboxylate] | < 100 | > 50 | < 10 | < 1 |
